The text below walks through data of patent US20260217697A1, “COMPOUNDS COMPRISING HETEROARYL RINGS AND COMPOSITIONS AND METHODS THEREOF” (lonGen Therapeutics Co., Ltd., priority 2022, published 2026).

Where only a bound is given, the exact number is not on record here.

For this experiment, the target named is T1, hTRPV3 (Homo sapiens, UniProt Q8NET8).
T1 construct: The commercially available plasmid with the full-length cDNA of hTRPV3 (791 aa) (NM_001258205.2); host or cells: HEK293T
T1 sequence (Q8NET8 1-791 isoform Q8NET8-2): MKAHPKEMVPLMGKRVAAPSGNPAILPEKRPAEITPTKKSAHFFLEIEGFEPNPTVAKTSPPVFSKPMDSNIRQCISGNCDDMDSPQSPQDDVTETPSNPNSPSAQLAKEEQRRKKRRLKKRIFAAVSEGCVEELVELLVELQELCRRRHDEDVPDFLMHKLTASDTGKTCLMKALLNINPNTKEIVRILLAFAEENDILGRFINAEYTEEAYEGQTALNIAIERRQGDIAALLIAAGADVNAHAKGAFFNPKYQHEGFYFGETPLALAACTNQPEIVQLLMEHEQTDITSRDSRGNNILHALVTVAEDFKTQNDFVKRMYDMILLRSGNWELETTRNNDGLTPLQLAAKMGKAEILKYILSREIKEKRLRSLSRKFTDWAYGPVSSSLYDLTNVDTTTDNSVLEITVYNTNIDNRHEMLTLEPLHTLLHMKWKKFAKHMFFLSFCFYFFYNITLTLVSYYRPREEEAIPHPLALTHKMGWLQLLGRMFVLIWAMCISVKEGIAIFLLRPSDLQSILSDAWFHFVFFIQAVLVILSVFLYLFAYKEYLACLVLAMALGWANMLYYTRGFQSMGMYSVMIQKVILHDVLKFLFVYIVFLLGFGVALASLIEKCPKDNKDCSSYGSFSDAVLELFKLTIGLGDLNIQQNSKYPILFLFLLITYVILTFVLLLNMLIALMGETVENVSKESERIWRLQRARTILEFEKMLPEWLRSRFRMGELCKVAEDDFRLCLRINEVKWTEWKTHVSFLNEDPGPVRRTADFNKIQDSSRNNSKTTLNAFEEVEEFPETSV
In words: Whole-cell patch-clamp recording of hTRPV3 current in transfected HEK293T cells (2-APB induced). It is filed as cell-based. The settings on record: current induced by 300 μM 2-APB, compounds tested up to 10 μM, room temperature. In outline: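 HEK293T cells transiently expressing full-length hTRPV3, recorded by whole-cell patch clamp 18 h post-transfection at room temperature, with 130 mM NaCl/0.3 mM EDTA/3 mM HEPES pH 7.4 on both sides. Holding potential 0 mV; 400-ms steps to +80 and −80 mV every 2 s. Block of 2-APB-evoked current, tested up to 10 μM, fitted to Hill equation for IC50.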
In general terms: In patch-clamp work, channel activity is measured electrically.
Regarding `COc1ncnc(OC)c1C(=O)Nc1nc2c(s1)-c1ccc(C(F)(F)F)cc1OC21CC[S+]([O-])CC1` (stereo not shown) [compound 95, 4,6-dimethoxy-N-(1′-oxido-7-(trifluoromethyl)-2′,3′,5′,6′-tetrahydrospiro[chromeno[3,4-d]thiazole-4,4′-thiopyran]-2-yl)pyrimidine-5-carboxamide], the IC50 (usually the concentration needed to halve the response being measured) lay within 1000 to 10000 nM.

In turn, `CCC1(CC)Oc2cc(C(F)(F)F)ccc2-c2nc(NC(=O)c3nccnc3OC)sc21` [compound 96, N-(4,4-diethyl-7-(trifluoromethyl)-4H-chromeno[4,3-d]thiazol-2-yl)-3-methoxypyrazine-2-carboxamide] returned an IC50 of 1000 to 10000 nM.

The molecule `[2H]C([2H])([2H])Oc1ncnc(OC([2H])([2H])[2H])c1C(=O)Nc1nc2c(s1)C(CC)(CC)Oc1cc(C(F)(F)F)ccc1-2` [compound 97, N-(4,4-diethyl-7-(trifluoromethyl)-4H-chromeno[4,3-d]thiazol-2-yl)-4,6-bis(methoxy-d3)pyrimidine-5-carboxamide] registered an IC50 of 100 to 1000 nM.

Turning to `CCC1(CC)Oc2cc(C(F)(F)F)ccc2-c2nc(NC(=O)c3c(OC)ccnc3OC)sc21` [compound 98, N-(4,4-diethyl-7-(trifluoromethyl)-4H-chromeno[4,3-d]thiazol-2-yl)-2,4-dimethoxynicotinamide], the half-inhibitory concentration (IC50) was 100 to 1000 nM.

For the molecule `COc1ncnc(OC)c1C(=O)Nc1nc2c(s1)COc1cccc(C(F)(F)F)c1-2` [compound 99, 4,6-dimethoxy-N-(9-(trifluoromethyl)-4H-chromeno[4,3-d]thiazol-2-yl)pyrimidine-5-carboxamide], the IC50 is not below 10000 nM.

For the molecule `COc1ncnc(OC)c1C(=O)Nc1nc2c(s1)C(CF)(CF)Oc1cc(C(F)(F)F)ccc1-2` [compound 100], the IC50 is less than 100 nM.

Molecule `COc1ncnc(OC)c1C(=O)Nc1nc2c(s1)C1(CCC(C(=O)O)CC1)Oc1cc(C(F)(F)F)ccc1-2` (stereo not shown) [compound 101, 2-(4,6-dimethoxypyrimidine-5-carboxamido)-7-(trifluoromethyl)spiro[chromeno[4,3-d]thiazole-4,1′-cyclohexane]-4′-carboxylic acid] yielded an IC50 not below 10000 nM.

`COc1ncnc(OC)c1C(=O)Nc1nc2c(s1)C1(CCC(C(N)=O)CC1)Oc1cc(C(F)(F)F)ccc1-2` (stereo not shown) [compound 102, 2-(4,6-dimethoxypyrimidine-5-carboxamido)-7-(trifluoromethyl)spiro[chromeno[4,3-d]thiazole-4,1′-cyclohexane]-4′-carboxamide]: the IC50 was not below 10000 nM.

On to `CNC(=O)C1CCC2(CC1)Oc1cc(C(F)(F)F)ccc1-c1nc(NC(=O)c3c(OC)ncnc3OC)sc12` (stereo not shown) [compound 103, 2-(4,6-dimethoxypyrimidine-5-carboxamido)-N-methyl-7-(trifluoromethyl)spiro[chromeno[4,3-d]thiazole-4,1′-cyclohexane]-4′-carboxamide], for which the IC50 lay in the range of 1000 to 10000 nM.

`CCOC(=O)CCCC1(C)Oc2cc(C(F)(F)F)ccc2-c2nc(NC(=O)c3c(OC)ncnc3OC)sc21` (stereo not shown) [compound 104, ethyl 4-(2-(4,6-dimethoxypyrimidine-5-carboxamido)-4-methyl-7-(trifluoromethyl)-4H-chromeno[4,3-d]thiazol-4-yl)butanoate]: the concentration for half-maximal inhibition (IC50) was in the range of 100 to 1000 nM.

In turn, `CCC1(CC)Oc2cc(C(F)F)ccc2-c2nc(NC(=O)c3c(OC)ncnc3OC)sc21` [compound 105, N-(7-(difluoromethyl)-4,4-diethyl-4H-chromeno[4,3-d]thiazol-2-yl)-4,6-dimethoxypyrimidine-5-carboxamide] displayed an IC50 of 100 to 1000 nM.

As to `COc1ncnc(OC)c1C(=O)Nc1nc2c(s1)C1(CCN(C(=O)OC(C)(C)C)C1)Oc1cc(C(F)(F)F)ccc1-2` (stereo not shown) [compound 106, tert-butyl 2-(4,6-dimethoxypyrimidine-5-carboxamido)-7-(trifluoromethyl)spiro[chromeno[4,3-d]thiazole-4,3′-pyrrolidine]-1′-carboxylate], the IC50 was in the range of 100 to 1000 nM.

For the molecule `CCC1(CC)Oc2cnccc2-c2nc(NC(=O)c3c(OC)ncnc3OC)sc21` [compound 107], the IC50 was 1000 to 10000 nM.

`COc1ncnc(OC)c1C(=O)Nc1nc2c(s1)C1(COC(C)(C)OC1)Oc1cc(C(F)(F)F)ccc1-2` [compound 108, N-(2′,2′-dimethyl-7-(trifluoromethyl)spiro[chromeno[4,3-d]thiazole-4,5′-[1,3]dioxan]-2-yl)-4,6-dimethoxypyrimidine-5-carboxamide] displayed an IC50 of 100 to 1000 nM.

With `COc1ncnc(OC)c1C(=O)Nc1nc2c(s1)C1(CCC(NC(=O)OC(C)(C)C)CC1)Oc1cc(C(F)(F)F)ccc1-2` (stereo not shown) [compound 109], the IC50 is 100 to 1000 nM.

Regarding `CCC1(CC)Oc2cc(C(F)(F)F)ccc2-c2nc(NCc3c(OC)ncnc3OC)sc21` [compound 110, N-((4,6-dimethoxypyrimidin-5-yl)methyl)-4,4-diethyl-7-(trifluoromethyl)-4H-chromeno[4,3-d]thiazol-2-amine], the IC50 lay in the range of 1000 to 10000 nM.

Consider `CCC1(CC)Oc2cc(C(F)(F)F)ccc2-c2nc(NC(=O)c3c(Cl)ncnc3Cl)sc21` [compound 111, 4,6-dichloro-N-(4,4-diethyl-7-(trifluoromethyl)-4H-chromeno[4,3-d]thiazol-2-yl)pyrimidine-5-carboxamide], for which the IC50 is 1000 to 10000 nM.

As to `CCC1(CC)Oc2cc(C(F)(F)F)ccc2-c2nc(NC(=O)c3c(Cl)ncnc3OC)sc21` [compound 112, 4-chloro-N-(4,4-diethyl-7-(trifluoromethyl)-4H-chromeno[4,3-d]thiazol-2-yl)-6-methoxypyrimidine-5-carboxamide], the IC50 is 100 to 1000 nM.

`COc1ncnc(OC)c1C(=O)Nc1nc2c(s1)C(CO)(CO)Oc1cc(C(F)(F)F)ccc1-2` [compound 113, N-(4,4-bis(hydroxymethyl)-7-(trifluoromethyl)-4H-chromeno[4,3-d]thiazol-2-yl)-4,6-dimethoxypyrimidine-5-carboxamide] showed an IC50 of 1000 to 10000 nM.

For `COc1ncnc(OC)c1C(=O)Nc1nc2c(s1)C(C)(CCCC(=O)O)Oc1cc(C(F)(F)F)ccc1-2` (stereo not shown) [compound 114, 4-(2-(4,6-dimethoxypyrimidine-5-carboxamido)-4-methyl-7-(trifluoromethyl)-4H-chromeno[4,3-d]thiazol-4-yl) butanoic acid], the IC50 is 1000 to 10000 nM.

For the molecule `COc1ncnc(OC)c1C(=O)Nc1nc2c(s1)C1(CN(C(=O)OC(C)C)C1)Oc1cc(C(F)(F)F)ccc1-2` [compound 115, isopropyl 2′-(4,6-dimethoxypyrimidine-5-carboxamido)-7′-(trifluoromethyl)spiro[azetidine-3,4′-chromeno[4,3-d]thiazole]-1-carboxylate], the IC50 lay within 100 to 1000 nM.

In turn, `COc1ncnc(OC)c1C(=O)Nc1nc2c(s1)C1(CCC(C(=O)N(C)C)CC1)Oc1cc(C(F)(F)F)ccc1-2` (stereo not shown) [compound 116, 2-(4,6-dimethoxypyrimidine-5-carboxamido)-N,N-dimethyl-7-(trifluoromethyl)spiro[chromeno[4,3-d]thiazole-4,1′-cyclohexane]-4′-carboxamide] yielded a concentration for half-maximal inhibition (IC50) of 1000 to 10000 nM.

Take `CCC1(CC)Oc2cc(C(C)=O)ccc2-c2nc(NC(=O)c3c(OC)ncnc3OC)sc21` [compound 117, N-(7-acetyl-4,4-diethyl-4H-chromeno[4,3-d]thiazol-2-yl)-4,6-dimethoxypyrimidine-5-carboxamide]: the IC50 lay in the range of 1000 to 10000 nM.

For `COCOCC1(COCOC)Oc2cc(C(F)(F)F)ccc2-c2nc(NC(=O)c3c(OC)ncnc3OC)sc21` [compound 118], the IC50 was 100 to 1000 nM.

As to `C=CCc1ncnc(OC)c1C(=O)Nc1nc2c(s1)C(CC)(CC)Oc1cc(C(F)(F)F)ccc1-2` [compound 119, 4-allyl-N-(4,4-diethyl-7-(trifluoromethyl)-4H-chromeno[4,3-d]thiazol-2-yl)-6-methoxypyrimidine-5-carboxamide], the IC50 fell in the range of 1000 to 10000 nM.

With `CCC1(CC)Oc2cc(C(F)(F)F)ccc2-c2nc(NC(=O)c3c(NC)ncnc3OC)sc21` [compound 120, N-(4,4-diethyl-7-(trifluoromethyl)-4H-chromeno[4,3-d]thiazol-2-yl)-4-methoxy-6-(methylamino)pyrimidine-5-carboxamide], the IC50 was 1000 to 10000 nM.

Consider `CCC1(CC)Oc2cc(C(F)(F)F)ccc2-c2nc(NC(=O)c3c(O)ncnc3OC)sc21` [compound 121, N-(4,4-diethyl-7-(trifluoromethyl)-4H-chromeno[4,3-d]thiazol-2-yl)-4-hydroxy-6-methoxypyrimidine-5-carboxamide], for which the IC50 is not below 10000 nM.

The molecule `CCC1(CC)Oc2cc(C(F)(F)F)ccc2-c2nc(NC(=O)c3c(OC)ncnc3OCOC)sc21` [compound 122, N-(4,4-diethyl-7-(trifluoromethyl)-4H-chromeno[4,3-d]thiazol-2-yl)-4-methoxy-6-(methoxymethoxy)pyrimidine-5-carboxamide] had an IC50 not below 10000 nM.
